This note sets out measurements from ChEMBL document CHEMBL3046921, “Synthesis of 3,5-disubstituted isoxazolines as protein tyrosine phosphatase 1B inhibitors” (Med Chem Res, 2008).

The target in test [1] is T1, Tyrosine-protein phosphatase non-receptor type 1 (Homo sapiens) (UniProt P18031).
T1 sequence (whole entry): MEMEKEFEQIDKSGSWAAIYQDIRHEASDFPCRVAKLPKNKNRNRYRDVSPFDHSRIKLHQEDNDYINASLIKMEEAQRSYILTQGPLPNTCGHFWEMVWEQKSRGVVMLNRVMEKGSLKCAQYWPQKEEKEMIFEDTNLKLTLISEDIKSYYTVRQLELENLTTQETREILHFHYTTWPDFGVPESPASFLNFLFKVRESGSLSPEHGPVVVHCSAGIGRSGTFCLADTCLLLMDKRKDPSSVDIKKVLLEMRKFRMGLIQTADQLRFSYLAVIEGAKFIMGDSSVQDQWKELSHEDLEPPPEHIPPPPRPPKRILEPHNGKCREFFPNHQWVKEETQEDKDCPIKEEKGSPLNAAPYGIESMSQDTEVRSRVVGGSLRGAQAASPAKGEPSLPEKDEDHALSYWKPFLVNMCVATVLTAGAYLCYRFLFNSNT
The test can be described thus: (§1) Inhibition of PTP1B (unknown origin) using p-nitrophenylphosphate as substrate at 100 uM after 10 min.

Test [2] has as its target T2, Tyrosine-protein phosphatase non-receptor type 1 (Homo sapiens, UniProt P18031).
T2 sequence (P18031 whole entry): T1 sequence (whole entry)
Nature of the test: Inhibition of PTP1B (unknown origin) using p-nitrophenylphosphate as substrate after 10 min.

Test [3] concerns Rattus norvegicus. The test can be described thus: Antidiabetic activity in albino Rattus norvegicus Sprague-Dawley (rat) streptozotocin-induced diabetic model assessed as reduction of blood glucose level at 100 mg/kg, po after 24 hr. It counts as functional. Details: scale not given: the % may be the effect or the level left.
Test [4] deals with Rattus norvegicus. Nature of the test: Antidiabetic activity in albino Rattus norvegicus Sprague-Dawley (rat) streptozotocin-induced diabetic model assessed as reduction of blood glucose level at 100 mg/kg, po after 5 hr. The class given is functional. Details: scale not given: the % may be the effect or the level left.
The target of test [5] is Tyrosine-protein phosphatase non-receptor type 1 (Homo sapiens) (UniProt P18031). Described as §1. The source holds these as a separate data set.

What is called inhibition is the change of the read-out against control, counted positive when it falls. For orientation: IC50 means the concentration that inhibits the measured activity by half. In test [1], `COc1ccc(C2CC(c3ccc4occc4c3OC)=NO2)cc1` (stereo unspecified) registered an inhibition of 79.6%. Also, in test [2], the IC50 was found to be 81 µM.

In the case of `COc1ccc(C2CC(c3ccc4c(c3OC)C=CC(C)(C)O4)=NO2)cc1` (stereo unspecified), the inhibition in test [1] was 57.7%.

`COc1c(C2=NOC(c3ccccn3)C2)ccc2c1C=CC(C)(C)O2` (stereo unspecified): the inhibition in test [1] is 62.4%.

Usually Ki stands for a measure of affinity in units of concentration, obtained from inhibition or displacement. In the case of `COC(=O)C1C(c2ccc(OC)cc2OC)=NOC1c1ccccc1` (stereo unspecified), the Activity in the test on Rattus norvegicus [3] turned out to be 7.74%. Moreover, the inhibition in test [1] was determined as 46.5%. In test [2], this molecule came in with a concentration for half-maximal inhibition (IC50) of 165 µM and an inhibitory constant (Ki) of 135 µM. Also, the Activity with Rattus norvegicus [4] came to 21.6%.

In test [2], SODIUM HYDROXYTRIOXIDOVANADIUM returned an IC50 of 86.5 µM and a Ki of 67 µM.

With `COc1ccc(C2=NOC(c3ccncc3)C2)c(OC)c1` (stereo unspecified), the inhibition in test [1] worked out at 11.5%. In test [2], this molecule returned a concentration for half-maximal inhibition (IC50) of 275 µM and a Ki of 150 µM.

Take `COc1c(C2=NOC(c3ccccc3)C2)ccc2c1C=CC(C)(C)O2` (stereo unspecified): in test [1], the inhibition stood at 64.2%.

In turn, `Oc1ccc(C2=NOC(c3ccccc3)C2)c(O)c1` (stereo unspecified) yielded an inhibition in test [1] of 29.5%.

In test [1], `COc1c(C2=NOC(c3ccccc3)C2)ccc2occc12` (stereo unspecified) returned an inhibition of 80.4%. Besides, in test [2], the IC50 stood at 76 µM.

In the case of `CC(=O)Oc1ccc(C2=NOC(c3ccccc3)C2)c(OC(C)=O)c1` (stereo unspecified), the Activity with Rattus norvegicus [3] came out at 15%; in the test on Rattus norvegicus [4], 23%. The molecule also registered an inhibition in test [1] of 91.6%.

In the case of `COc1ccc(C2=NOC(n3ccnc3)C2)c(OC)c1` (stereo unspecified), the Activity in the test on Rattus norvegicus [3] worked out at 15%. The molecule further registered an inhibition in test [1] of 79.8%. In test [2], this molecule returned an IC50 of 88 µM and a Ki of 63 µM. In addition, in the test with Rattus norvegicus [4], the Activity is on record as 22.3%.

In turn, `COc1ccc(C2=NOC(c3ccccn3)C2)c(OC)c1` (stereo unspecified) gave an inhibition in test [1] of 9.8%. In test [2], this molecule yielded an IC50 of 485 µM and an inhibition constant Ki of 170 µM.

Consider `COc1ccc(C2=NOC(c3ccccc3)C2)c(OC(C)=O)c1` (stereo unspecified), for which the Activity in the test on Rattus norvegicus [3] stood at 6.96%; in the test on Rattus norvegicus [4], 20.5%. Moreover, the inhibition in test [1] was found to be 28.8%.

As to `COc1ccc(C2=NOC(c3ccccc3)C2)c(OC)c1` (stereo unspecified), the Activity came out at 19.7% in the test on Rattus norvegicus [3] and 18% with Rattus norvegicus [4]. Also, the inhibition in test [1] was 88.5%. Also, inhibition in test [2] was half-maximal at 69 µM (IC50). In test [2], this molecule returned a Ki of 48 µM.

`COc1ccc(C2=NOC(c3ccccc3)C2)c(O)c1` (stereo unspecified) gave an inhibition in test [1] of 47.1%.

`CN(C)C(=N)NC(=N)N` [METFORMIN]: the values for the Activity with Rattus norvegicus [3] and in the test with Rattus norvegicus [4] were 26.5% and 23.6%, respectively.

`COc1ccc(C2CC(c3ccc(OC)cc3OC)=NO2)cc1` (stereo unspecified): the Activity in the test on Rattus norvegicus [3] is 12.2%. The same molecule had an inhibition in test [1] of 65.8%. In test [2], the IC50 was 67 µM and the Ki is 48 µM. Moreover, in the test on Rattus norvegicus [4], the Activity is 2.56%.

On to SODIUM [sequence], for which the inhibition in test [5] came out at 56.2%.
